US8802597B2, “Herbicidal pyrimidines” (E I du Pont de Nemours and Company, priority 2003, dated 2014)
Read-outs that look alike come from different tables or passages of the source.

Assays:
Assay type in all cases: in vivo
wild oat (Avena fatua) = assay: Test B postemergence; conditions: Avena fatua, post-emergence
Method in brief: (§1)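 Pre: compound (non-phytotoxic solvent + surfactant) applied to freshly planted seeds. Post: same formulation sprayed on 2–18 cm plants, 1- to 4-leaf. Readout: visual control rating 0–100 vs controls, 13–15 d, greenhouse.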

[1] = system: blackgrass (Alopecurus myosuroides); assay: Test B postemergence; conditions: Alopecurus myosuroides, post-emergence
Method in brief: as §1

rice (Oryza sativa) = assay: Test B flooded paddy test; conditions: Oryza sativa, Flood, 1000 g ai/ha; scale 0 to 100; read-out: Plant response rating, Rice
Method in brief: (§2)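 Plants were grown to the 2-leaf stage before treatment, then kept in a greenhouse for 13 to 15 days. Injury was rated visually against untreated controls on a 0 to 100 scale, where 0 is no effect and 100 is complete control.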

[2] = system: duck salad (Heteranthera limosa); assay: Test B flooded paddy test; conditions: Heteranthera limosa, Flood, 1000 g ai/ha; scale 0 to 100; read-out: Plant response rating, Ducksalad
Method in brief: as §2

[3] = system: barnyardgrass (Echinochloa crus-galli); assay: Test B flooded paddy test; conditions: Echinochloa crus-galli, Flood, 1000 g ai/ha; scale 0 (no effect) to 100 (complete control); read-out: Plant response rating, Barnyardgrass
Method in brief: as §2

[4] = system: umbrella sedge (Cyperus difformis); assay: Test B flooded paddy test; conditions: Cyperus difformis, Flood, 1000 g ai/ha; scale 0 to 100; read-out: Plant response rating, Sedge, Umbrella
Method in brief: as §2

corn (Zea mays) = assay: Test B pre/postemergence; conditions: Zea mays
Method in brief: as §1

[5] = system: cocklebur (Xanthium strumarium); assay: Test B pre/postemergence; conditions: Xanthium strumarium; for pest or weed control at 125 g/ha: 125 g ai/ha; for pest or weed control at 500 g/ha: 500 g ai/ha
Method in brief: as §1

[6] = system: velvetleaf (Abutilon theophrasti); assay: Test B pre/postemergence; conditions: Abutilon theophrasti; for pest or weed control at 125 g/ha: 125 g ai/ha; for pest or weed control at 500 g/ha: 500 g ai/ha
Method in brief: as §1

[7] = system: Surinam grass (Brachiaria decumbens); assay: Test B pre/postemergence; conditions: Urochloa decumbens; for pest or weed control at 125 g/ha: 125 g ai/ha; for pest or weed control at 500 g/ha: 500 g ai/ha
Method in brief: as §1

[8] = system: barnyardgrass (Echinochloa crus-galli); assay: Test B pre/postemergence; conditions: Echinochloa crus-galli; for pest or weed control at 125 g/ha: 125 g ai/ha; for pest or weed control at 500 g/ha: 500 g ai/ha
Method in brief: as §1

[9] = system: wheat (Triticum aestivum); assay: Test B pre/postemergence; conditions: Triticum aestivum; for plant injury at 125 g/ha: 125 g ai/ha; for plant injury at 500 g/ha: 500 g ai/ha
Method in brief: as §1

[10] = system: crabgrass (Digitaria sanguinalis); assay: Test B pre/postemergence; conditions: Digitaria sanguinalis; for pest or weed control at 125 g/ha: 125 g ai/ha; for pest or weed control at 500 g/ha: 500 g ai/ha
Method in brief: as §1

[11] = system: pigweed (Amaranthus retroflexus); assay: Test B pre/postemergence; conditions: Amaranthus retroflexus; for pest or weed control at 125 g/ha: 125 g ai/ha; for pest or weed control at 500 g/ha: 500 g ai/ha
Method in brief: as §1

[12] = system: lambsquarters (Chenopodium album); assay: Test B pre/postemergence; conditions: Chenopodium album; for pest or weed control at 125 g/ha: 125 g ai/ha; for pest or weed control at 500 g/ha: 500 g ai/ha
Method in brief: as §1

[13] = system: morningglory (Ipomoea coccinea); assay: Test B pre/postemergence; conditions: Ipomoea; for pest or weed control at 125 g/ha: 125 g ai/ha; for pest or weed control at 500 g/ha: 500 g ai/ha
Method in brief: as §1

[14] = system: giant foxtail (Setaria faberii); assay: Test B pre/postemergence; conditions: Setaria faberi; for pest or weed control at 125 g/ha: 125 g ai/ha; for pest or weed control at 500 g/ha: 500 g ai/ha
Method in brief: as §1

Structure (SMILES): Nc1nc(C2CC2)nc(CO)c1Br [Compound 21]
- pest or weed control at 125 g/ha (wild oat (Avena fatua); 125 g ai/ha, scale 0 to 100 (0 no effect, 100 complete control), read-out: Oat, Wild plant response rating): 0%
- pest or weed control at 500 g/ha (wild oat (Avena fatua); 500 g ai/ha, scale 0 to 100, read-out: Plant response rating, Oat, Wild): 0%
- pest or weed control at 125 g/ha ([1]; 125 g ai/ha, scale 0 to 100 (0 no effect, 100 complete control), read-out: Blackgrass plant response rating): 10%
- pest or weed control at 500 g/ha ([1]; 500 g ai/ha, scale 0 to 100, read-out: Plant response rating, Blackgrass): 20%
- plant injury at 1000 g/ha (rice (Oryza sativa)): 40%
- pest or weed control at 1000 g/ha [2]: 80%
- pest or weed control at 1000 g/ha [3]: 60%
- pest or weed control at 1000 g/ha [4]: 0%
- plant injury at 125 g/ha (corn (Zea mays); post-emergence, Postemergence, 125 g ai/ha, scale 0 to 100 (0 no effect, 100 complete control), read-out: Corn plant response rating): 0%
- Corn plant response rating (crop injury, 0 = no effect, 100 = complete kill) at 500 g/ha (corn (Zea mays); post-emergence, Postemergence, 500 g ai/ha, scale 0 to 100): 0%
- Corn plant response rating (crop injury, 0 = no effect, 100 = complete kill) at 125 g/ha (corn (Zea mays); pre-emergence, Preemergence, 125 g ai/ha, scale 0 to 100 (0 no effect, 100 complete control)): 0%
- pest or weed control at 125 g/ha ([5]; post-emergence, Postemergence, scale 0 to 100 (0 no effect, 100 complete control), read-out: Cocklebur plant response rating): 0%
- pest or weed control at 500 g/ha ([5]; post-emergence, Postemergence, scale 0 to 100, read-out: Plant response rating, Cocklebur): 10%
- pest or weed control at 125 g/ha ([5]; pre-emergence, Preemergence, scale 0 to 100 (0 no effect, 100 complete control), read-out: Plant response rating, Cocklebur): 30%
- pest or weed control at 500 g/ha ([5]; pre-emergence, Preemergence, scale 0 to 100 (0 no effect, 100 complete control), read-out: Cocklebur plant response rating): 80%
- pest or weed control at 125 g/ha ([6]; post-emergence, Postemergence, scale 0 to 100 (0 no effect, 100 complete control), read-out: Velvetleaf plant response rating): 10%
- pest or weed control at 500 g/ha ([6]; post-emergence, Postemergence, scale 0 to 100, read-out: Plant response rating, Velvetleaf): 30%
- pest or weed control at 125 g/ha ([6]; pre-emergence, Preemergence, scale 0 to 100 (0 no effect, 100 complete control), read-out: Plant response rating, Velvetleaf): 10%
- pest or weed control at 500 g/ha ([6]; pre-emergence, Preemergence, scale 0 to 100 (0 no effect, 100 complete control), read-out: Velvetleaf plant response rating): 80%
- pest or weed control at 125 g/ha ([7]; post-emergence, Postemergence, scale 0 to 100 (0 no effect, 100 complete control), read-out: Surinam Grass plant response rating): 0%
- pest or weed control at 500 g/ha ([7]; post-emergence, Postemergence, scale 0 to 100, read-out: Plant response rating, Surinam Grass): 0%
- pest or weed control at 125 g/ha ([7]; pre-emergence, Preemergence, scale 0 to 100 (0 no effect, 100 complete control), read-out: Plant response rating, Surinam Grass): 0%
- pest or weed control at 500 g/ha ([7]; pre-emergence, Preemergence, scale 0 to 100 (0 no effect, 100 complete control), read-out: Surinam Grass plant response rating): 20%
- pest or weed control at 125 g/ha ([8]; post-emergence, Postemergence, scale 0 to 100 (0 no effect, 100 complete control), read-out: Barnyardgrass plant response rating): 0%
- pest or weed control at 500 g/ha ([8]; post-emergence, Postemergence, scale 0 to 100, read-out: Plant response rating, Barnyardgrass): 0%
- pest or weed control at 125 g/ha ([8]; pre-emergence, Preemergence, scale 0 to 100 (0 no effect, 100 complete control), read-out: Plant response rating, Barnyardgrass): 0%
- pest or weed control at 500 g/ha ([8]; pre-emergence, Preemergence, scale 0 to 100 (0 no effect, 100 complete control), read-out: Barnyardgrass plant response rating): 10%
- plant injury at 125 g/ha ([9]; post-emergence, Postemergence, scale 0 to 100 (0 no effect, 100 complete control), read-out: Wheat plant response rating): 10%
- plant injury at 500 g/ha ([9]; post-emergence, Postemergence, scale 0 to 100, read-out: Plant response rating, Wheat): 20%
- plant injury at 125 g/ha ([9]; pre-emergence, Preemergence, scale 0 to 100 (0 no effect, 100 complete control), read-out: Plant response rating, Wheat): 0%
- plant injury at 500 g/ha ([9]; pre-emergence, Preemergence, scale 0 to 100 (0 no effect, 100 complete control), read-out: Wheat plant response rating): 30%
- pest or weed control at 125 g/ha ([10]; post-emergence, Postemergence, scale 0 to 100 (0 no effect, 100 complete control), read-out: Crabgrass plant response rating): 0%
- pest or weed control at 500 g/ha ([10]; post-emergence, Postemergence, scale 0 to 100, read-out: Plant response rating, Crabgrass): 0%
- pest or weed control at 125 g/ha ([10]; pre-emergence, Preemergence, scale 0 to 100 (0 no effect, 100 complete control), read-out: Plant response rating, Crabgrass): 0%
- pest or weed control at 500 g/ha ([10]; pre-emergence, Preemergence, scale 0 to 100 (0 no effect, 100 complete control), read-out: Crabgrass plant response rating): 60%
- pest or weed control at 125 g/ha ([11]; post-emergence, Postemergence, scale 0 to 100 (0 no effect, 100 complete control), read-out: Pigweed plant response rating): 0%
- pest or weed control at 500 g/ha ([11]; post-emergence, Postemergence, scale 0 to 100, read-out: Plant response rating, Pigweed): 30%
- pest or weed control at 125 g/ha ([11]; pre-emergence, Preemergence, scale 0 to 100 (0 no effect, 100 complete control), read-out: Plant response rating, Pigweed): 50%
- pest or weed control at 500 g/ha ([11]; pre-emergence, Preemergence, scale 0 to 100 (0 no effect, 100 complete control), read-out: Pigweed plant response rating): 70%
- pest or weed control at 125 g/ha ([12]; post-emergence, Postemergence, scale 0 to 100 (0 no effect, 100 complete control), read-out: Lambsquarters plant response rating): 10%
- pest or weed control at 500 g/ha ([12]; post-emergence, Postemergence, scale 0 to 100, read-out: Plant response rating, Lambsquarters): 20%
- pest or weed control at 125 g/ha ([12]; pre-emergence, Preemergence, scale 0 to 100 (0 no effect, 100 complete control), read-out: Plant response rating, Lambsquarters): 70%
- pest or weed control at 500 g/ha ([12]; pre-emergence, Preemergence, scale 0 to 100 (0 no effect, 100 complete control), read-out: Lambsquarters plant response rating): 80%
- pest or weed control at 125 g/ha ([13]; post-emergence, Postemergence, scale 0 to 100 (0 no effect, 100 complete control), read-out: Morningglory plant response rating): 10%
- pest or weed control at 500 g/ha ([13]; post-emergence, Postemergence, scale 0 to 100, read-out: Plant response rating, Morningglory): 30%
- pest or weed control at 125 g/ha ([13]; pre-emergence, Preemergence, scale 0 to 100 (0 no effect, 100 complete control), read-out: Plant response rating, Morningglory): 50%
- pest or weed control at 500 g/ha ([13]; pre-emergence, Preemergence, scale 0 to 100 (0 no effect, 100 complete control), read-out: Morningglory plant response rating): 90%
- pest or weed control at 125 g/ha ([14]; post-emergence, Postemergence, scale 0 to 100 (0 no effect, 100 complete control), read-out: Foxtail, Giant plant response rating): 0%
- pest or weed control at 500 g/ha ([14]; post-emergence, Postemergence, scale 0 to 100, read-out: Plant response rating, Foxtail, Giant): 0%
- pest or weed control at 125 g/ha ([14]; pre-emergence, Preemergence, scale 0 to 100 (0 no effect, 100 complete control), read-out: Plant response rating, Foxtail, Giant): 0%
- pest or weed control at 500 g/ha ([14]; pre-emergence, Preemergence, scale 0 to 100 (0 no effect, 100 complete control), read-out: Foxtail, Giant plant response rating): 10%
